The values that follow come from patent US10744127B2, “MDR-reversing 8-hydroxy-quinoline derivatives” (MAGYAR TUDOMÁNYOS AKADÉMIA TERMÉSZETTUDOMÁNYI KUTATÓKÖZPONT, priority 2016, dated 2020).

Where two headings read alike, the source gives them in different places.

The subject of series [1] is MDCK II and MDCK II B1 cell lines. Put plainly: Selective toxicity towards MDCK II and MDCK II B1 cell lines. It is filed as cell-based, canine. Conditions: MDCK II versus MDCK II B1. The protocol:
(§1) Cell survival was measured by the PrestoBlue® Cell Viability Reagent (Life Technologies, USA). Cells were seeded in 100 μl medium at a density of 5000 cells/well in 96-well plates; the serially diluted drug was added the following day. Cells were then incubated for 72 hours at 37° C. in 5% CO2; the drug containing medium was removed, and the PrestoBlue® reagent was added according to the manufacturer's instructions. Fluorescence of the cells was measured by a Perkin Elmer EnSpire multimode plate reader or Perkin Elmer Victor X3 microplate reader. Data were background corrected and normalized to untreated cells. Curves were fitted with the help of Prism software using the sigmoidal dose-response model. Curve fit statistics were used to determine IC50 values. Differences between the IC50 values of the respective cell lines were analyzed by two-sided […] unpaired Student's t test and results were considered statistically significant at a P value of <0.05 (*) or 0.01 (**).
(§2) Data on selective toxicity (expressed as Selectivity Ratio, SR) in two MDR models engineered by retroviral transfection of P-glycoprotein (A431/A431-B1 and MDCK II/MDCK II B1 cell lines) are presented in Table 3 and Table 4.
(§3) A431 is a human epidermoid carcinoma cell line. Its derivative, the A431-B1 cell line expresses P-gp due to retroviral transfection of the mdr1 gene Türk, D. et al (Türk, D. et al., 2009). MDCK II is a canine kidney cell line. MDCK II B1 was created by inserting the mdr1 gene with transposons [Pape V F S et al. 2015] Both cell express P-gp stably, and show a stable MDR phenotype. Culture conditions were identical as in the case of MES-SA cells.

Series [2] deals with P-gp-expressing MES-SA/Dx5 cells. Kind of series: P-gp switch assay (Calcein AM). As to conditions: MES-SA/Dx5, single dose at IC20 (killing 80% of the cells), surviving population at 80% confluence, Calcein AM. It is filed as cell-based, human. Here is the method: One million P-gp-expressing MES-SA/Dx5 cells were plated in a T25 cell culture flask. After 24 hours the compound of interest was added directly to the cells at a concentration corresponding to the IC20 value (killing 80% of the cells). After 5 days the culture media was removed, the cells were washed with PBS and the culture medium was exchanged. Cells were monitored daily and the recovery was recorded. The medium was changed every 5 days until the confluence of the cells reached 80%. At 80% confluence the cells were removed by gentle trypsinization, counted by an automated cell counter and stained with Calcein AM, a cellular dye able to detect the function of P-gp (Homolya 1993). P-gp-positivity was evaluated based on the ability of P-gp-expressing cells to extrude Calcein AM.

For a further series, the system named is MES-SA cell line. Kind of series: Cytotoxicity, PrestoBlue cell viability assay, parental MES-SA. Conditions: Homo sapiens; parental MES-SA cell line (Table 2a). It is filed as cell-based. Here is the method: (§4) The human uterine sarcoma cell line MES-SA and its doxorubicin resistant counterpart MES-SA/Dx5 were obtained from ATCC (MES-SA: No. CRL-1976™, MES-SA-Dx5: No. CRL-1977™). MES-SA/Dx5 cells express high levels of P-gp, and therefore are multidrug resistant (MDR). Cells were cultured in DMEM supplemented with 10% FBS, 5 mmol/L glutamine and 50 unit/mL penicillin and streptomycin (Life Technologies).
as §1

The test system of series [3] is A431 and A431-B1 cell lines. Put plainly: Selective toxicity in A431 and A431-B1 cell lines. It counts as cell-based, human. Conditions: A431 versus P-gp-transfected A431-B1. Here is the method:
as §1, §2, §3

A further series concerns MES-SA/Dx5 cell line. Kind of series: Cytotoxicity, PrestoBlue cell viability assay, MES-SA/Dx5. It is filed as cell-based. As to conditions: Homo sapiens. The protocol:
as §4, §1

In series [4] the test system is MES-SA and MES-SA/Dx5 cells. Kind of series: Selective toxicity in the presence of the P-gp inhibitor tariquidar. It is filed as cell-based, human. As to conditions: selectivity ratio in the presence of tariquidar (1 μM). Here is the method: In the presence of tariquidar (an inhibitor of P-gp function), the toxicity of the compounds selectively diminishes in multidrug-resistant MES-SA/Dx5 cells, while the toxicity is unchanged against parental MESSA cells, which is reflected by a decrease in the selectivity ratio (SR (TQ)).
To investigate the contribution of P-glycoprotein to the cytotoxic effect of a compound, cell survival was measured in the presence of the P-glycoprotein inhibitor tariquidar (1 μM). Tariquidar (CAS 206873-63-4) can be obtained e.g. from Selleck, Houston, USA.

In series [5] the test system is MES-SA and multidrug-resistant MES-SA/Dx5 cell line. Kind of series: Selective toxicity (ratio of IC50 in MES-SA to IC50 in MES-SA/Dx5) and activity index. It is filed as cell-based, human.
Text: Compounds having P-gp potentiated MDR-selective activity can be characterized by their inhibitory concentration (IC) with regard to a specific cancer cell line. Usually the IC value is given at a certain percentage ratio of non-inhibited molecules or surviving cells. For example an IC20 value of a compound on a cell line means that at this inhibitory concentration of the compound 80% of the cells are killed whereas 20% of the cells are still viable. A further characteristic of MDR-selective drugs is the selectivity ratio (SR), which is the ratio of the IC value measured in a non-multidrug resistant cell line to (i.e. divided by) the IC value measured in the corresponding transformed, multidrug-resistant cell line. The inverse value, the resistance ratio (RR) is calculated as the ratio of a compound's IC value against a multidrug resistant cell line divided by the parallel IC value of the same compound against a control non-multidrug resistant cell line. The Activity Index (AI) is calculated here as the ratio of the compound's selectivity ratio (SR) and the compound's IC50 value against the resistant cell. The AI reflects the level of simultaneous toxicity and selectivity towards multidrug-resistant cancer cells.
as §4, §1
Selectivity towards multidrug-resistant cells is expressed as the ratio of the IC50 value measured in the parental MES-SA and multidrug-resistant MES-SA/Dx5 cell line (Selectivity Ratio, SR).
A novel characteristic of the compounds presented in this invention is that they exert their selective cytotoxicity at low IC50 values. Simultaneous toxicity and selectivity towards multidrug-resistant cancer cells is reflected by the Activity Index (AI) of the compounds, which is the ratio of the selectivity ratio (SR) and the IC50 value on the resistant cell line.

Another series relates to MES-SA/Dx5 cells. Put plainly: Sensitivity of MES-SA/Dx5 cells to doxorubicin after a single treatment. It counts as cell-based, human. Conditions: after treatment with a single dose (FIG. 3). An excerpt:
The above treatment with compounds of the general Formula I results in a new, stable phenotype, with the complete resensitization of cells to conventional chemotherapy consisting of P-glycoprotein substrates such as doxorubicin (FIG. 3).
Curves show the sensitivity of MES-SA/Dx5 cells (P-gp overexpressing cell line established from MES-SA) to doxorubicin before and after treatment with a single dose of a state of the art compound (NSC693872) and two compounds relating to this invention (Example compounds No. 9 and No. 17). The sensitivity of MES-SA cells is shown as a reference (P-gp-negative parental cell line). […] (Values indicate the IC50 values (μM) derived from the cytotoxicity curves).

[6] abbreviates: multidrug-resistant MES-SA/Dx5 cell line (Table 2a), read-out: IC50 (nM) in MES-SA/Dx5 cell line.
Setting [7] is: MES-SA / MES-SA/Dx5, without tariquidar (Table 5).
Setting [8] is: MES-SA/Dx5 (Table 2b), read-out: IC50 (μM) Dx5.
Setting [9] is: Mes-sa/Dx5 cell line, PrestoBlue assay, 72 hours (Table 1), read-out: IC50.

The compound `C/C(=N\Nc1ccc2ccc(CN3CCCCC3)c(O)c2n1)c1ccccn1` [Example 3, (E/Z)-7-(Piperidin-1ylmethyl)-2-(2-(1-(pyridin-2-yl)ethylidene)hydrazinyl)quinolin-8-ol] yielded a melting point of 69 to 71 °C. Further, the “Selectivity Ratio (SR) (MDCK II/MDCK II B1)” value in [1] stood at 9.5. In series [2], the “Fraction of P-gp-negative cells (P3) in the population” value is listed as 88.6% and the “Fraction of P-gp-positive cells (P4) in the population” value was 11.40%. For the same compound, the IC50 in the series with MES-SA cell line was 11300 nM. The “Selectivity Ratio (SR) (A431/A431-B1)” value in series [3] worked out at 14.4. Besides, in the series with MES-SA/Dx5 cell line (setting [6]), the IC50 was 727 nM. Further, the “SR (TQ)” value in [4] was determined as 1.5. The SR in series [5] (setting [7]) was found to be 16.2.

For the compound `Oc1c(C2NCCc3sccc32)cc(Cl)c2cccnc12` (stereo not shown) [Example 17, 5-Chloro-7-(4,5,6,7-tetrahydrothieno[3,2-c]pyridin-4-yl)quinolin-8-ol], the “Selectivity Ratio (SR) (A431/A431-B1)” value in series [3] worked out at 12.6. The “Resensitization of MES-SA/Dx5 cells to doxorubicin” value in the series on MES-SA/Dx5 cells is listed as “sufficient to resensitize MES-SA/Dx5 cells to doxorubicin”.

`Cc1ccc2ccc(C3NCCc4sccc43)c(O)c2n1` (stereo not shown) [Example 20]: the “Selectivity Ratio (SR) (MDCK II/MDCK II B1)” value in series [1] is reported as 10.0. Moreover, the “Selectivity Ratio (SR) (A431/A431-B1)” value in series [3] came to 13.2.

`COc1ccc(CNCc2cc(Br)c3cccnc3c2O)cc1OC` [Example 25, 5-Bromo-7-(((3,4-dimethoxybenzyl)amino)methyl)quinolin-8-ol] came in with a melting point of 133 to 136 °C. Further, the “Selectivity Ratio (SR) (MDCK II/MDCK II B1)” value in [1] is listed as 9.4. Moreover, in series [2], the “Fraction of P-gp-negative cells (P3) in the population” value is given as 92.30% and the “Fraction of P-gp-positive cells (P4) in the population” value is listed as 7.70%. The IC50 with MES-SA cell line worked out at 2910 nM. Besides, the IC50 in the series on MES-SA/Dx5 cell line (setting [8]) is 130 nM. The IC50 in the series on MES-SA/Dx5 cell line (setting [9]) was 131 nM. The IC50 with MES-SA/Dx5 cell line (setting [6]) came out at 131 nM. The “SR (TQ)” value in [4] was 1.6. Further, the SR in [5] (MES-SA / MES-SA/Dx5 (Table 2b)) came to 22.3. Also, the SR in [5] (setting [7]) was determined as 22.3.

`COc1ccc(CNCc2cc(Cl)c3cccnc3c2O)c(OC)c1` [Example 26, 5-Chloro-7-(((2,4-dimethoxybenzyl)amino)methyl)quinolin-8-ol] had a melting point of 136 to 139 °C. For the same compound, in [1], the “Selectivity Ratio (SR) (MDCK II/MDCK II B1)” value amounted to 8.0. Moreover, the IC50 in the series with MES-SA cell line amounted to 2260 nM. Moreover, in series [3], the “Selectivity Ratio (SR) (A431/A431-B1)” value was found to be 11.2. Besides, the IC50 in the series with MES-SA/Dx5 cell line (setting [8]) stood at 130 nM. The IC50 in the series on MES-SA/Dx5 cell line (setting [9]) came to 133 nM. Moreover, the IC50 in the series on MES-SA/Dx5 cell line (setting [6]) was 130 nM. Moreover, in series [4], the “SR (TQ)” value turned out to be 1.7. Besides, in series [5] (MES-SA / MES-SA/Dx5 (Table 2b)), the SR is 17.6. In [5] (setting [7]), the SR was found to be 17.6.

`COc1ccc(CNCc2cc([N+](=O)[O-])c3cccnc3c2O)cc1` [Example 27, 7-(((4-Methoxybenzyl)amino)methyl)-5-nitroquinolin-8-ol] had a melting point of 191 to 193 °C. In [1], the “Selectivity Ratio (SR) (MDCK II/MDCK II B1)” value turned out to be 8.0. Besides, the IC50 in the series on MES-SA cell line worked out at 6090 nM. The “Selectivity Ratio (SR) (A431/A431-B1)” value in series [3] was 12.6. Moreover, the IC50 with MES-SA/Dx5 cell line (setting [8]) was 310 nM. The IC50 in the series on MES-SA/Dx5 cell line (setting [6]) turned out to be 310 nM. Moreover, the “SR (TQ)” value in [4] stood at 1.6. Also, the SR in series [5] (MES-SA / MES-SA/Dx5 (Table 2b)) is on record as 19.9. Further, the SR in series [5] (setting [7]) is 19.9.

`COc1ccccc1CNCc1cc([N+](=O)[O-])c2cccnc2c1O` [Example 29, 7-(((2-Methoxybenzyl)amino)methyl)-5-nitroquinolin-8-ol] displayed a melting point of 199 to 203 °C. In addition, in [1], the “Selectivity Ratio (SR) (MDCK II/MDCK II B1)” value is recorded as 17.1. Further, the IC50 with MES-SA cell line worked out at 40600 nM. Also, in series [3], the “Selectivity Ratio (SR) (A431/A431-B1)” value was determined as 25.1. The IC50 with MES-SA/Dx5 cell line (setting [6]) stood at 2090 nM. In addition, the “Selectivity Ratio (SR)” value in series [5] (IC50 in MES-SA divided by IC50 in MES-SA/Dx5 (Table 2a)) is 19.2.

The compound `COc1ccc(CNCc2cc([N+](=O)[O-])c3cccnc3c2O)cc1OC` [Example 30, 7-(((3,4-Dimethoxybenzyl)amino)methyl)-5-nitroquinolin-8-ol] showed a melting point of 204 to 206 °C. Further, in series [1], the “Selectivity Ratio (SR) (MDCK II/MDCK II B1)” value was 16.1. Besides, the IC50 with MES-SA cell line came out at 23800 nM. Besides, the “Selectivity Ratio (SR) (A431/A431-B1)” value in series [3] is recorded as 11.5. The IC50 in the series with MES-SA/Dx5 cell line (setting [6]) was determined as 1220 nM. For the same compound, the “SR (TQ)” value in series [4] is reported as 1.3. Also, the SR in series [5] (setting [7]) was found to be 19.3.

On to `COc1ccc(CNCc2cc(S(C)(=O)=O)c3cccnc3c2O)c(OC)c1` [Example 37, 7-(((2,4-Dimethoxybenzyl)amino)methyl)-5-(methylsulfonyl)quinolin-8-ol], for which, in series [1], the “Selectivity Ratio (SR) (MDCK II/MDCK II B1)” value was 8.9. In addition, the “Selectivity Ratio (SR) (A431/A431-B1)” value in series [3] is reported as 16.7.

What is called melting point is the temperature of the solid-liquid transition.
